# System: NHKs cells
# Test: Western Blot assessment of ability to repair DNA damage after pre-treatment with G01 and subsequent UV irradiation
# Assay type: cell-based, human
# Conditions: after UVB irradiation 25 mJ/cm^2, 6 h
# Procedure: The NHKs cells were plated in the specific culture medium and maintained in culture for 24±2 h to allow adhesion to the plate. Then, the keratinocytes were treated for 24±2 h with the compound of the invention G01, at concentrations of 60 μM and 90 μM. Subsequently, the plates identified as +UVA, +G01/UVA, +UVB, and +G01/UVB were respectively exposed, in the irradiation medium, to doses of UVA of 10 J/cm^2 and UVB of 25 mJ/cm^2, while the control plates (Ctr) and those treated only with G01 were maintained in the dark and at room temperature for a period of time equal to the irradiation time. The irradiation medium was then replaced with the culture medium. Based on the preliminary results obtained on a broader time range, a post-treatment time of 6 h was selected, after which the plates were processed for Western Blot protein determination.
# For each condition tested (treatment with G01 and/or UVA/UVB irradiation), the protein expression of the phosphorylated histone γH2AX, p53 and GADD45a (growth arrest and DNA damage response gene), known markers of DNA damage induced by UV radiation, was compared with the expression in the control cells (Ctr).
smiles,measurement,value
"C/C=C/C=C/C=C/C(=O)O [G01, 2,4,6-trans-octatrienoic acid]",fraction of phosphorylated histone γH2AX,reduced fraction
